For one experiment, the target named is T1, Human DNMT1 (Homo sapiens, UniProt P26358).
T1 construct: a-a 2-1632, with N-terminal GST tag; GST (N)
Put plainly: DNMT1 enzymatic activity inhibition, radioisotope-based 3H-SAM filter binding assay. It counts as biochemical. Particulars: 1 μM SAM, 25 nM DNMT1, 0.005 mg/ml Poly(dI-dC), 30° C. 1 hour, 10-dose.

A further experiment has as its system BT474. Put plainly: Cancer cell growth inhibition, BT474. It counts as cell-based. Particulars: Homo sapiens, BT-474; Breast, BT474, cell viability, 72 h. The procedure: (§1) Cell culture-based assays were used to evaluate the ability of compounds of the invention to inhibit cancer cell growth inhibition.
(§2) Cells were obtained from the American Type Culture Collection (ATCC) and European Collection of Cell Cultures (ECACC).
(§3) Cells were thawed in their appropriate media plus supplements (see table below). Cells were passaged at confluence by washing once in HBSS cation-free followed by a 3 minutes incubation with trypsin ([0.5 μg/ml]/EDTA [0.2 μg/ml]) (Gibco-BRL, 15400054) solution in HBSS at 37° C. (except non-adherent cell lines), and transferred to their appropriate media plus supplements. Prior to seeding at defined cell concentration, cells were recovered in medium, centrifuged and taken up in medium, and counted. […]
(§4) Dose-response curves were generated by serial dilutions (1:1) of the compounds. […] Plates were incubated 72 h, and living cell number was determined by AlamarBlue® and Hexosaminidase test. […] AlamarBlue® assay: plates were incubated 72 h and living cell number was determined by AlamarBlue (Biosource DAL1100). After 4 h incubation at 37° C., relative fluorescent intensity, which correlates with the number of living cells, was read in a Cytofluor plate reader (Millipore) at 535/590 nm (Excitation/emission). The hexosaminidase activity was measured according to the following protocol: the media was removed and cells were washed once with PBS. […]

The test system of a further experiment is MDA-MB-231. Put plainly: Cancer cell growth inhibition, MDA-MB-231. It counts as cell-based. Particulars: Homo sapiens; Breast, MDA-MB-231, cell viability, 72 h. As to the method:
as §1, §2, §3, §4

The next experiment concerns MDA-MB-468. Put plainly: Cancer cell growth inhibition, MDA-MB-468. Particulars: Homo sapiens; Breast, MDA-MB-468, cell viability, 72 h. It counts as cell-based. As to the method:
as §1, §2
(§5) Cells were thawed in their appropriate media plus supplements (see table below). Cells were passaged at confluence by washing once in HBSS cation-free followed by a 3 minutes incubation with trypsin ([0.5 μg/ml]/EDTA [0.2 μg/ml]) (Gibco-BRL, 15400054) solution in HBSS at 37° C. (except non-adherent cell lines), and transferred to their appropriate media plus supplements. Prior to seeding at defined cell concentration, cells were recovered in medium, centrifuged and taken up in medium, and counted.
(§6) Cells were plated at 3000/5000/10000 cells/well in 100 μl media in tissue culture 96 well plates (Cultek). After 24 h, media was supplemented by 100 μl/well of diluted IPDNs at 100 μM.
(§7) The Hexosaminidase assay was used for the adherent cell lines, whereas the AlamarBlue® assay was used for the non-adherent cell lines.
(§8) Dose-response curves were generated by serial dilutions (1:1) of the compounds. […] Reagent blanks, containing media plus colorimetric reagent without cells were run on each plate. Blank values were subtracted from test values and were routinely 5-10% of uninhibited control values. Plates were incubated 72 h, and living cell number was determined by AlamarBlue® and Hexosaminidase test. The advantages of using those assays are that both can be done in the same microwell plate. AlamarBlue® assay: plates were incubated 72 h and living cell number was determined by AlamarBlue (Biosource DAL1100). After 4 h incubation at 37° C., relative fluorescent intensity, which correlates with the number of living cells, was read in a Cytofluor plate reader (Millipore) at 535/590 nm (Excitation/emission). The hexosaminidase activity was measured according to the following protocol: the media was removed and cells were washed once with PBS. […]

The test system of a further experiment is MCF-7. Put plainly: Cancer cell growth inhibition, MCF-7. Particulars: Homo sapiens, MCF7; Breast, MCF-7, cell viability, 72 h. It counts as cell-based. The procedure, abridged:
(§9)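 Cells seeded at 3000/5000/10000 per well and dosed after 24 h with 1:1 serial compound dilutions, then incubated 72 h. Viable cells were read by hexosaminidase activity for adherent lines and by AlamarBlue fluorescence (4 h, 37 °C, 535/590 nm) for non-adherent lines. EC50 came from a variable-slope sigmoidal fit of blank-subtracted viability relative to untreated controls.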

The next experiment deals with HCT-116. Put plainly: Cancer cell growth inhibition, HCT-116. It counts as cell-based. Conditions: Homo sapiens; Colorectal, HCT-116, cell viability, 72 h. The procedure, abridged: as §9
Another experiment concerns SW-480. Put plainly: Cancer cell growth inhibition, SW-480. It counts as cell-based. Conditions: Homo sapiens, SW480; Colorectal, SW-480, cell viability, 72 h. As to the method:
as §1, §2, §3, §4

For the next experiment, the system named is NCI-H1975. Put plainly: Cancer cell growth inhibition, NCI-H1975. It counts as cell-based. Particulars: Homo sapiens; Lung, NCI-H1975, cell viability, 72 h. The procedure, abridged:
as §9

Another experiment deals with SK-HEP-1. Put plainly: Cancer cell growth inhibition, SK-HEP-1. It counts as cell-based. Conditions: Homo sapiens, SK-HEP1; Liver, SK-HEP-1, cell viability, 72 h. As to the method: as §1, §2, §5, §6, §7, §8
The test system of the next experiment is Panc-1. Put plainly: Cancer cell growth inhibition, Panc-1. Particulars: Homo sapiens; Pancreatic, Panc-1, cell viability, 72 h. It counts as cell-based. The procedure:
as §1, §2, §5, §6, §7
Dose-response curves were generated by serial dilutions (1:1) of the compounds. […] Reagent blanks, containing media plus colorimetric reagent without cells were run on each plate. Blank values were subtracted from test values and were routinely 5-10% of uninhibited control values. Plates were incubated 72 h, and living cell number was determined by AlamarBlue® and Hexosaminidase test. The advantages of using those assays are that both can be done in the same microwell plate. AlamarBlue® assay: plates were incubated 72 h and living cell number was determined by AlamarBlue (Biosource DAL1100). After 4 h incubation at 37° C., relative fluorescent intensity, which correlates with the number of living cells, was read in a Cytofluor plate reader (Millipore) at 535/590 nm (Excitation/emission). The hexosaminidase activity was measured according to the following protocol: the media was removed and cells were washed once with PBS.
Data analysis was done by calculating the percentage of cell viability normalized in front of negative control values, which were considered as a 100%. The curve was adjusted using a sigmoidal dose-response (variable slope) equation and EC50 values were obtained from the equation
where, X is the logarithm of concentration. Y is the response. Bottom is the Y value at the bottom plateau Top is the Y value at the top plateau LogEC50 is the X value when the response is halfway between Bottom and Top. With different kinds of variables, this variable is sometimes called ED50 (effective dose, 50%), or IC50 (inhibitory concentration, 50%, used when the curve goes downhill).

A further experiment relates to MDA-MB-435. Put plainly: Cancer cell growth inhibition, MDA-MB-435. Conditions: Homo sapiens; Melanoma, MDA-MB-435, cell viability, 72 h. It counts as cell-based. The procedure, abridged: as §9
In another experiment the test system is RCC-7860. Put plainly: Cancer cell growth inhibition, RCC-7860. It counts as cell-based. Conditions: Renal, RCC-7860, cell viability, 72 h. The procedure:
as §1, §2, §3, §4

The test system of the next experiment is U-373MG. Put plainly: Cancer cell growth inhibition, U-373MG. It counts as cell-based. Particulars: Homo sapiens, U373 MG, Brain, cell viability, 72 h. The procedure:
as §1, §2, §5, §6, §7, §8

In a further experiment the test system is U-87MG. Put plainly: Cancer cell growth inhibition, U-87MG. Conditions: Homo sapiens, Brain, cell viability, 72 h. It counts as cell-based. The procedure, abridged: as §9
For another experiment, the system named is CCFR-CEM. Put plainly: Cancer cell growth inhibition, CCFR-CEM. It counts as cell-based. Particulars: Hematologic, cell viability, 72 h. The procedure, abridged: as §9
Another experiment deals with Jurkat. Put plainly: Cancer cell growth inhibition, Jurkat. It counts as cell-based. Particulars: Homo sapiens, Hematologic, cell viability, 72 h. The procedure, abridged: as §9
The next experiment concerns LS174T. Put plainly: Cancer cell growth inhibition, LS174T. It counts as cell-based. Conditions: Homo sapiens, Colorectal, cell viability, 72 h. The procedure: as §1, §2, §3, §4

T1 sequence (P26358 2-1632 isoform P26358-2): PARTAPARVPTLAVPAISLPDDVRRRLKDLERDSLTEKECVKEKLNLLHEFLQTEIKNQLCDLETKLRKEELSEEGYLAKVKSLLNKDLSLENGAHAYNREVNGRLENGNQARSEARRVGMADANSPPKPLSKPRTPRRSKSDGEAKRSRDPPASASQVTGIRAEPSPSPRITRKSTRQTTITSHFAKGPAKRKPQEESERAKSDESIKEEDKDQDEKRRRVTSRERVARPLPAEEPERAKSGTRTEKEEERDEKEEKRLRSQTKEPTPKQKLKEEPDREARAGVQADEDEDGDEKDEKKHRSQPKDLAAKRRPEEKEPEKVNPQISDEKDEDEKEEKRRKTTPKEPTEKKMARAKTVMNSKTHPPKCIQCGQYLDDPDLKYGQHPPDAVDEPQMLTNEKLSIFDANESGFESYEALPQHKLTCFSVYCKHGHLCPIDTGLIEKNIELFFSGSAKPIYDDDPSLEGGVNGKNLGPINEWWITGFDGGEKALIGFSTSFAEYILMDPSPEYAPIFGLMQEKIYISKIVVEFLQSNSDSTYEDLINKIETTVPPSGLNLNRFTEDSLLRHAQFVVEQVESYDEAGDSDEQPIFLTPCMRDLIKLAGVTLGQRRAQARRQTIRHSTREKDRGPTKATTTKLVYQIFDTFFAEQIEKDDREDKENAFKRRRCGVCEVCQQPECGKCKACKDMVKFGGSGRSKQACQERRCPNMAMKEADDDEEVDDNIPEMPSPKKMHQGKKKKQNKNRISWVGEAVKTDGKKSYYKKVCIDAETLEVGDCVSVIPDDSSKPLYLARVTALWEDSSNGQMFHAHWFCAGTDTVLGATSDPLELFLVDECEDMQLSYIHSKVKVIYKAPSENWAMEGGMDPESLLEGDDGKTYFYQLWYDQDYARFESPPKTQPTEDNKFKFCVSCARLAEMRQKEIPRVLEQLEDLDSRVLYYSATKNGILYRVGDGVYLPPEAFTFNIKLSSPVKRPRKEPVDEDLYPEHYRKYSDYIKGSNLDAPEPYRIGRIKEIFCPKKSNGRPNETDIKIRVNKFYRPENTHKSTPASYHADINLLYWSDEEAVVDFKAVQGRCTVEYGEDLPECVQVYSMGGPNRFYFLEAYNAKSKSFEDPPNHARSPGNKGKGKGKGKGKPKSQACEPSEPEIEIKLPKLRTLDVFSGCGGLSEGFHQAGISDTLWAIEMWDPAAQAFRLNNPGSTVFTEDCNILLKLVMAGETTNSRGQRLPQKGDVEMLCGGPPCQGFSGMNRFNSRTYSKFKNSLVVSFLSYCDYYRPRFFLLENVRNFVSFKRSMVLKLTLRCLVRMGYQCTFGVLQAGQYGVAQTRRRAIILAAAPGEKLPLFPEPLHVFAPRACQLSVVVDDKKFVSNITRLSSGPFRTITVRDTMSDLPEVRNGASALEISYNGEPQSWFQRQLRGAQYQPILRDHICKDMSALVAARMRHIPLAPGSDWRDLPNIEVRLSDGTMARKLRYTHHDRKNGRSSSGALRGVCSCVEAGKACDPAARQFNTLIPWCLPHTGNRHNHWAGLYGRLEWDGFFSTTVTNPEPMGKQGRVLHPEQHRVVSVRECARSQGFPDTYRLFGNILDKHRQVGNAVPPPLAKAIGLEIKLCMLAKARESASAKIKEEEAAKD

Consider `COc1cc(OC)c2c(-c3ccc(O)cc3)cn(CC(=O)c3ccc(O)cc3)c2c1` [Example 6, 1-(4-hydroxyphenyl)-2-[3-(4-hydroxyphenyl)-4,6-dimethoxy-1H-indol-1-yl]ethanone], for which, on Human DNMT1, the IC50 – broadly, the concentration that inhibits the measured activity by half – worked out at 27.9 µM. For the same compound, the EC50 – broadly, the concentration needed to bring the measured effect to its halfway point – is 50 µM in the experiment with BT474; 13 µM in the experiment on MDA-MB-231; 6.1 µM in the experiment with MDA-MB-468; 6.2 µM with MCF-7; 5.7 µM in the experiment on HCT-116; 94 µM in the experiment with SW-480. The EC50 in the experiment with NCI-H1975 was found to be 9.2 µM; in the experiment with SK-HEP-1, 31 µM; with Panc-1 it was 15 µM; with MDA-MB-435, 4.3 µM; in the experiment with RCC-7860, 12 µM; in the experiment with U-373MG it was 8.1 µM. The results for the EC50 with U-87MG, in the experiment on CCFR-CEM and in the experiment on Jurkat were 13 µM, 6.3 µM and 1.9 µM, respectively.

`O=C(Cn1cc(-c2ccc(O)cc2)c2c(F)cc(F)cc21)c1ccc(O)cc1` [Example 16, 2-[4,6-difluoro-3-(4-hydroxyphenyl)-1H-indol-1-yl]-1-(4-hydroxyphenyl) ethanone] came in with an IC50 at Human DNMT1 of 22.5 µM. Further, the EC50 amounted to 74 µM with MDA-MB-468; 41 µM with MCF-7; 37 µM in the experiment with HCT-116; 88 µM with LS174T; 35 µM in the experiment with SK-HEP-1; 57 µM in the experiment with MDA-MB-435. The EC50 in the experiment with U-87MG came to 95 µM; with CCFR-CEM, 57 µM; in the experiment on Jurkat it was 30 µM.
